pIC50: −log10 of the molar value.
Tests used:
[1] = molecular target: T1, P2X purinoceptor 7 (Homo sapiens, UniProt Q99572); test: Antagonist activity at human recombinant P2X7 receptor expressed in human 1321N1 cells assessed as inhibition of BzATP-induced pore formation flux by fluorometric assay; type: functional, cell-based
T1 sequence (Q99572 whole entry): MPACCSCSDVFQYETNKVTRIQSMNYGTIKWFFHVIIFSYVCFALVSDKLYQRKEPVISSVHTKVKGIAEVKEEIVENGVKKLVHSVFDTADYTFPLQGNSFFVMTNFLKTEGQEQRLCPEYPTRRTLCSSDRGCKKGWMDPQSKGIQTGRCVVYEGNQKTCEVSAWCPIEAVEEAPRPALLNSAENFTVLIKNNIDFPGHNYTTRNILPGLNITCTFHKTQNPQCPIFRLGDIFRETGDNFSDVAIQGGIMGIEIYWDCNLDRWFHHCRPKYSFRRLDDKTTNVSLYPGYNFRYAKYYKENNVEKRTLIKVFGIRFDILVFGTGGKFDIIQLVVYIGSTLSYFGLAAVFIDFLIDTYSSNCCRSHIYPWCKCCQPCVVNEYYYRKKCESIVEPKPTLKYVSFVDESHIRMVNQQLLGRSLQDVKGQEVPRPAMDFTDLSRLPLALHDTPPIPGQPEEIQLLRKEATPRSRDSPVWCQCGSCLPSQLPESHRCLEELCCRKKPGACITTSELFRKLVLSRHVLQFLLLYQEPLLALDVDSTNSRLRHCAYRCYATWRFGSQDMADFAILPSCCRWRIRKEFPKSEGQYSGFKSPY

[2] = molecular target: T1, P2X purinoceptor 7; test: Antagonist activity at human recombinant P2X7 receptor expressed in human THP1 cells assessed as inhibition of BzATP-induced IL1-beta release by enzyme-linked immunosorbent assay; type: functional, cell-based, THP-1
[3] = molecular target: T1, P2X purinoceptor 7; test: Antagonist activity at P2X7 receptor in human THP1 cells assessed as inhibition of BzATP-induced pore formation; type: functional, cell-based, THP-1
[4] = molecular target: T2, P2X purinoceptor 7 (Rattus norvegicus, UniProt Q64663); test: Binding affinity at rat P2X7 receptor
T2 sequence (Q64663 whole entry): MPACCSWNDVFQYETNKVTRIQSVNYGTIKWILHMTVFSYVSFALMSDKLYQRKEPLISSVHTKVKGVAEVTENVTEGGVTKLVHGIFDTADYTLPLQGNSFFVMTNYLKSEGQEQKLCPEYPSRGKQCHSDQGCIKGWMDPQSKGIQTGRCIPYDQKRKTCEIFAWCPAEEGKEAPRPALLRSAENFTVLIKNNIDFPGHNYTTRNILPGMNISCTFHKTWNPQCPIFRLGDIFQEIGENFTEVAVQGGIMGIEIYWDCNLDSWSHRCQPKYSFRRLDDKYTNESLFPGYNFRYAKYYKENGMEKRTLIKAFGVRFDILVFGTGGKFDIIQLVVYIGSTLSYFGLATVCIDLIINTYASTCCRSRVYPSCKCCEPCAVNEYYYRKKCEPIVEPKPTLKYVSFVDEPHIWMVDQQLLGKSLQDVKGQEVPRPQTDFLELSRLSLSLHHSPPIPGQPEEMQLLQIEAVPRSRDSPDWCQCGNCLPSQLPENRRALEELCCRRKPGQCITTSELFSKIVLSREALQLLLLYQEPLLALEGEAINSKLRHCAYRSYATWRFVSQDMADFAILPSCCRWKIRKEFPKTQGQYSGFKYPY

| pIC50 [3] | SMILES | other results |
| --- | --- | --- |
| – | COc1ccc(CC(=O)NC(N/C(=N/C#N)Nc2cccc3ncccc23)C(C)(C)C)cc1OC (stereo unspecified) | pIC50 [1]: 7.04; pIC50 [2]: 6.81 |
| 6.52 | CN([C@@H](Cc1ccc(OS(=O)(=O)c2cccc3cnccc23)cc1)C(=O)N1CCN(c2ccccc2)CC1)S(=O)(=O)c1cccc2cnccc12 | – |
| – | [3H]c1ccc([C@H](C)N/C(=N/C#N)Nc2cccc3ncccc23)cc1 | pIC50 [4]: 8.00 |
| 6.15 | N=C1N[C@@H]2O[C@@H]3NC(=N)N[C@]34[C@H]([C@H](CNC(=O)c3cc(Br)c(Br)[nH]3)[C@@H](CNC(=O)c3cc(Br)c(Br)[nH]3)[C@@H]4O[C@H]3[C@H](CNC(=O)c4cc(Br)c(Br)[nH]4)[C@@H](CNC(=O)c4cc(Br)c(Br)[nH]4)[C@@H]4[C@]5(O)NC(=N)N[C@@H]5O[C@@H]5NC(=N)N[C@]453)[C@]2(O)N1 [STYLISSADINE A] | – |
| 5.74 | N=C1N[C@@H]2O[C@@H]3NC(=N)N[C@]34[C@H]([C@H](CNC(=O)c3cc(Br)c(Br)[nH]3)[C@@H](CNC(=O)c3cc(Br)c(Br)[nH]3)[C@@H]4O[C@H]3[C@H](CNC(=O)c4cc(Br)c(Br)[nH]4)[C@@H](CNC(=O)c4cc(Br)c(Br)[nH]4)[C@H]4[C@]5(O)NC(=N)N[C@@H]5O[C@@H]5NC(=N)N[C@]534)[C@]2(O)N1 [STYLISSADINE B] | – |

— ChEMBL document CHEMBL1154101, “Purinergic P2X(7) receptor antagonists: Chemistry and fundamentals of biological screening” (Bioorg Med Chem, 2009)
